US10456407B2, “Combination therapy for treating cancer” (Epizyme, Inc., priority 2015, dated 2019)

Experiments:
Type in all cases: cell-based
SMARCB1 protein levels = assay: SMARCB1 (INI1) western blot in lymphoma cells; details: single agent treatment
Excerpt: Glucocorticoid bound GR molecules move to the nucleus and can act as either transcriptional activator or repressor, depending on the cellular environment. […] Accessibility to GR binding sites can further be enhanced by ATP-dependent chromatin remodeling, and the SWI/SNF complex plays a key role in this activity. Not wishing to be bound by a particular theory or a specific mechanism of action, it is conceivable that aberrant chromatin repression, induced by EZH2 mediated hypertrimethylation of H3K27, can block some of the otherwise accessible GR binding sites, interfering with normal GR mediated gene induction or repression.

OCI-Ly19 cells = assay: RT2 Glucocorticoid signaling PCR array, OCI-LY19 (Table 4a, printed OCT) cell line; details: vs DMSO
RL cells = assay: RT2 Glucocorticoid signaling PCR array, RL (Table 4e, printed RI) cell line; details: 4 days, Cpd44 1 uM, Pred 10-fold below 4-day IC50, vs DMSO, B2M-normalized
SU-DHL4 cells = assay: RT2 Glucocorticoid signaling PCR array, SU-DHL4 (SUDHL4) cell line (Table 4f); details: SUDHL4, 4 days, vs DMSO

## C[C@]12C=CC(=O)C=C1CC[C@@H]1[C@@H]2[C@@H](O)C[C@@]2(C)[C@H]1CC[C@]2(O)C(=O)CO [Prednisolone, prednisolone]
SMARCB1 protein levels
  SMARCB1 protein levels: no effect
OCI-Ly19 cells; gene ADARB1
  ΔΔCT, ADARB1: −0.049
OCI-Ly19 cells; gene AK2
  ΔΔCT, AK2: −0.063
OCI-Ly19 cells; gene ANGPTL4
  ΔΔCT, ANGPTL4: −0.754
OCI-Ly19 cells; gene ARID68
  ΔΔCT, ARID68: −0.079
OCI-Ly19 cells; gene ASPH
  ΔΔCT, ASPH: 0.346
OCI-Ly19 cells; gene ATF4
  ΔΔCT, ATF4: 0.456
OCI-Ly19 cells; gene BCL6
  ΔΔCT, BCL6: 0.239
OCI-Ly19 cells; gene CEBPB
  ΔΔCT, CEBPB: 0.686
OCI-Ly19 cells; gene COL4A2
  ΔΔCT COL4A2: 1.601
OCI-Ly19 cells; gene CREB3L4
  ΔΔCT, CREB3L4: 0.152
OCI-Ly19 cells; gene CTGF
  ΔΔCT CTGF: −1.080
OCI-Ly19 cells; gene DDIT4
  ΔΔCT, DDIT4: −1.173
OCI-Ly19 cells; gene DUSP1
  ΔΔCT, DUSP1: 0.164
OCI-Ly19 cells; gene EHD3
  ΔΔCT, EHD3: −0.773
OCI-Ly19 cells; gene FK8PS
  ΔΔCT, FK8PS: −0.873
OCI-Ly19 cells; gene FOSL2
  ΔΔCT, FOSL2: −0.480
OCI-Ly19 cells; gene GDPD1
  ΔΔCT, GDPD1: 1.130
OCI-Ly19 cells; gene GLUL
  ΔΔCT GLUL: −0.090
OCI-Ly19 cells; gene H6PD
  ΔΔCT, H6PD: −0.483
OCI-Ly19 cells; gene HNRPLL
  ΔΔCT, HNRPLL: −0.156
OCI-Ly19 cells; gene KLF9
  ΔΔCT, KLF9: −1.571
OCI-Ly19 cells; gene KLF13
  ΔΔCT, KLF13: −0.075
OCI-Ly19 cells; gene LOX
  ΔΔCT, LOX: −1.179
OCI-Ly19 cells; gene MERTK
  ΔΔCT MERTK: −0.277
OCI-Ly19 cells; gene MTZA
  ΔΔCT MTZA: −0.169
OCI-Ly19 cells; gene NFKBIA
  ΔΔCT, NFKBIA: 0.043
OCI-Ly19 cells; gene NR3C1
  ΔΔCT, NR3C1: −0.286
OCI-Ly19 cells; gene PDCC7
  ΔΔCT PDCC7: 4.571
OCI-Ly19 cells; gene PDGFRB
  ΔΔCT PDGFRB: −2.242
OCI-Ly19 cells; gene PDP1
  ΔΔCT, PDP1: −0.422
OCI-Ly19 cells; gene PIK3R1
  ΔΔCT, PIK3R1: −0.119
OCI-Ly19 cells; gene PLEKHF1
  ΔΔCT, PLEKHF1: 0.139
OCI-Ly19 cells; gene POU2F1
  ΔΔCT, POU2F1: 0.048
OCI-Ly19 cells; gene POU2F2
  ΔΔCT, POU2F2: −0.574
OCI-Ly19 cells; gene RASA3
  ΔΔCT, RASA3: 0.009
OCI-Ly19 cells; gene RHOB
  ΔΔCT, RHOB: −1.763
OCI-Ly19 cells; gene SESN1
  ΔΔCT, SESN1: 0.041
OCI-Ly19 cells; gene SGK1
  ΔΔCT, SGK1: −1.154
OCI-Ly19 cells; gene SLC10A6
  ΔΔCT, SLC10A6: −0.369
OCI-Ly19 cells; gene SLC19A2
  ΔΔCT, SLC19A2: 0.410
OCI-Ly19 cells; gene SLC22A5
  ΔΔCT, SLC22A5: 0.236
OCI-Ly19 cells; gene SNTA1
  ΔΔCT, SNTA1: 0.119
OCI-Ly19 cells; gene SPHK1
  ΔΔCT, SPHK1: 0.022
OCI-Ly19 cells; gene STAT5A
  ΔΔCT, STAT5A: −0.064
OCI-Ly19 cells; gene STAT5B
  ΔΔCT, STAT5B: 0.330
OCI-Ly19 cells; gene TNFAIP3
  ΔΔCT, TNFAIP3: 0.250
OCI-Ly19 cells; gene TSC22D3
  ΔΔCT, TSC22D3: −1.695
OCI-Ly19 cells; gene USP2
  ΔΔCT, USP2: −0.585
OCI-Ly19 cells; gene USPS4
  ΔΔCT, USPS4: 0.286
OCI-Ly19 cells; gene VDR
  ΔΔCT, VDR: −0.730
OCI-Ly19 cells; gene ZHX3
  ΔΔCT, ZHX3: −0.730
OCI-Ly19 cells; gene ZNF281
  ΔΔCT, ZNF281: 0.871
RL cells; ADARB1 mRNA
  ΔΔCT: 0.413
RL cells; AFF1 mRNA
  ΔΔCT: −1.390
RL cells; AK2 mRNA
  ΔΔCT: 0.686
RL cells; AMPD3 mRNA
  ΔΔCT: −0.544
RL cells; ANGPTL4 mRNA
  ΔΔCT: 1.668
RL cells; ANXA4 mRNA
  ΔΔCT: 0.131
RL cells; ARID68 mRNA
  ΔΔCT: 0.833
RL cells; ASPH mRNA
  ΔΔCT: 0.771
RL cells; BCL6 mRNA
  ΔΔCT: 0.937
RL cells; CEBPB mRNA
  ΔΔCT: 2.638
RL cells; CREB1 mRNA
  ΔΔCT: 0.483
RL cells; CREB3L4 mRNA
  ΔΔCT: 0.129
RL cells; DDIT4 mRNA
  ΔΔCT: 1.431
RL cells; DUSP1 mRNA
  ΔΔCT: −0.153
RL cells; EDN1 mRNA
  ΔΔCT: 6.595
RL cells; EHD3 mRNA
  ΔΔCT: 0.055
RL cells; FK8PS mRNA
  ΔΔCT: −0.333
RL cells; FOSL2 mRNA
  ΔΔCT: 2.300
RL cells; GDPD1 mRNA
  ΔΔCT: 0.711
RL cells; GLUL mRNA
  ΔΔCT: 1.007
RL cells; GOT1 mRNA
  ΔΔCT: 1.467
RL cells; H6PD mRNA
  ΔΔCT: 0.935
RL cells; HNRPLL mRNA
  ΔΔCT: 0.789
RL cells; IL1RN mRNA
  ΔΔCT: −0.808
RL cells; IL6R mRNA
  ΔΔCT: 0.885
RL cells; IL10 mRNA
  ΔΔCT: −0.083
RL cells; KLF13 mRNA
  ΔΔCT: 0.346
RL cells; LOX mRNA
  ΔΔCT: −0.132
RL cells; MT2A mRNA
  ΔΔCT: 1.656
RL cells; NFKBIA mRNA
  ΔΔCT: 0.853
RL cells; NR3C1 mRNA
  ΔΔCT: 0.952
RL cells; PDCD7 mRNA
  ΔΔCT: 0.394
RL cells; PDP1 mRNA
  ΔΔCT: 0.742
RL cells; PER1 mRNA
  ΔΔCT: 2.230
RL cells; PER2 mRNA
  ΔΔCT: 0.250
RL cells; PLEKHF1 mRNA
  ΔΔCT: 1.075
RL cells; POU2F2 mRNA
  ΔΔCT: 0.797
RL cells; RA5A3 mRNA
  ΔΔCT: 1.543
RL cells; RGS2 mRNA
  ΔΔCT: 0.772
RL cells; SGK1 mRNA
  ΔΔCT: 0.848
RL cells; SLC10A6 mRNA
  ΔΔCT: −1.725
RL cells; SNTA1 mRNA
  ΔΔCT: 1.144
RL cells; SPHK1 mRNA
  ΔΔCT: 2.618
RL cells; SPSB1 mRNA
  ΔΔCT: 2.005
RL cells; STAT5A mRNA
  ΔΔCT: 0.789
RL cells; STAT5B mRNA
  ΔΔCT: 0.512
RL cells; TBL1XR1 mRNA
  ΔΔCT: 0.794
RL cells; TNF mRNA
  ΔΔCT: −0.598
RL cells; TNFAIP3 mRNA
  ΔΔCT: 1.561
RL cells; TSC22D3 mRNA
  ΔΔCT: −1.431
RL cells; USP2 mRNA
  ΔΔCT: −0.661
RL cells; USPS4 mRNA
  ΔΔCT: 0.491
RL cells; VDR mRNA
  ΔΔCT: 1.247
RL cells; VLDLR mRNA
  ΔΔCT: −1.862
RL cells; ZFP36 mRNA
  ΔΔCT: 0.925
RL cells; ZNF281 mRNA
  ΔΔCT: 0.371
SU-DHL4 cells
  ΔΔCT, ADARB1: −0.516
  ΔΔCT, AFF1: −0.429
  ΔΔCT, AK2: −1.076
  ΔΔCT, AMPD3: −0.891
  ΔΔCT, ANGPTL4: −1.047
  ΔΔCT, ANXA4: −0.890
  ΔΔCT, ARID68: −0.131
  ΔΔCT, ASPH: −0.451
  ΔΔCT, ATF4: −0.279
  ΔΔCT, CEBPA: −0.301
  ΔΔCT, CREB1: −0.548
  ΔΔCT, CREB3: −0.560
  ΔΔCT, CREB3L4: −0.199
  ΔΔCT, CYB561: −0.720
  ΔΔCT, EHD3: −1.325
  ΔΔCT, FK8PS: −1.582
  ΔΔCT, GDPD1: −0.409
  ΔΔCT, GHRHR: 0.184
  ΔΔCT, GOT1: −0.402
  ΔΔCT, H6PD: 0.160
  ΔΔCT, HNRPLL: −0.286
  ΔΔCT, IL6R: −0.524
  ΔΔCT, IL10: −0.130
  ΔΔCT, KLF9: −0.821
  ΔΔCT, KLF13: −0.934
  ΔΔCT, MT2A: 0.129
  ΔΔCT, NR3C1: −0.427
  ΔΔCT, PDCD7: 0.403
  ΔΔCT, PER1: −0.786
  ΔΔCT, PER2: −1.101
  ΔΔCT, PIK3R1: −0.892
  ΔΔCT, PLEKHF1: −1.285
  ΔΔCT, POU2F1: −0.432
  ΔΔCT, RGS2: −0.372
  ΔΔCT, RHOB: 0.724
  ΔΔCT, SGK1: −0.346
  ΔΔCT, SLC10A6: −3.874
  ΔΔCT, SLC19A2: −0.995
  ΔΔCT, SLC22A5: −0.171
  ΔΔCT, SNTA1: −0.687
  ΔΔCT, SPSB1: 0.068
  ΔΔCT, STAT5B: −0.268
  ΔΔCT, TBL1XR1: −0.721
  ΔΔCT, TNFAIP3: 0.835
  ΔΔCT, TSC22D3: −2.169
  ΔΔCT, USP2: −1.681
  ΔΔCT, USPS4: −1.060
  ΔΔCT, ZFP36: −0.541
  ΔΔCT, ZHX3: −0.868
